From US20240293563A1, “GLP-1 RECEPTOR LIGAND MOIETY CONJUGATED OLIGONUCLEOTIDES AND USES THEREOF” (priority 2017, published 2024)
Square brackets hold non-standard residues; d marks the D form. Side chains are listed from the residue outwards. Ends that are not written are not given here. 5'‑hexylamino oligonucleotide ISIS 786434 = not defined here; Aib = CC(C)(N)C(=O)O; Mpa = O=C(O)CCS

Assays:
[1] = Food intake of mice after single subcutaneous injection of GLP-1 conjugated ASO; assay type: in vivo, mouse
Experimental: Groups of eight mice were administered a single subcutaneous injection of 0.01, 0.03, or 0.1 μmol/kg of ION 816385 (GLP-1 conjugated MALAT-1 ASO conjugated via a disulfide linker) or 0.1 μmol/kg ION 1123118 (GLP-1 conjugated MALAT-1 ASO conjugated via a maleimide acid linker), as indicated in the table below, and food intake was measured for 24 hours. Food intake of eight mice administered a subcutaneous injection of PBS was monitored as a control.

MALAT-1 mRNA = experiment: Dose-response inhibition of MALAT-1 mRNA in pancreatic islets 72 hrs after single s.c. dose, various linkers; assay type: in vivo, mouse; settings: 0.01 μmol/kg single subcutaneous injection, relative to PBS
MALAT1 mRNA = experiment: Dose dependent antisense inhibition of MALAT1 in WT HEK293 cells; assay type: cell-based, human; settings: approximately 24 hrs, qRT-PCR normalized to RPLP0
MALAT1 [2] = experiment: Effect of peptide composition and attachment point on peptide-conjugated ASO activity in LVX-GLP1R cells; assay type: cell-based, human; settings: 7 doses in a 4-fold dilution series, MALAT1 RNA
MALAT1 [3] = experiment: In situ hybridization of MALAT1 (QuantiGene ViewRNA) in mouse tissues after intravenous ASO; assay type: in vivo
Description: NO: 63) or a GLP-1 conjugated MALAT1 ASO (ISIS 816385) described in Example 1 at concentrations of 1.8. 0.6, or 0.2 μmol/kg. […] MALAT1 expression was detected using the QuantiGene ViewRNA tissue assay (Affymetrix, cat. No. QVT0011). Species-specific MALAT1 probes were purchased from Affymetrix (cat. No. VB-11110-01/mouse; VF1-13963/monkey). In brief, mouse tissues were fixed in 10% neutral-buffered formalin and embedded into paraffin and sectioned into […]. After deparaffinization, the tissue slides were boiled in Affymetrix pretreatment solution for 10-30 minutes followed by treatment with protease at 40° C. for 10 to 40 minutes depending on tissue. The MALAT1 RNA probe was used at a 1:40 dilution and was incubated with sample at 40° C. for 120 minutes. After washing, the MALAT1 RNA/probe complex was hybridized with preamplifier, amplifier, and AP-oligonucleotides at 40° C. for 25, 15, and 15 minutes, respectively. After removal of free AP oligonucleotide by washing in PBS, the slide was incubated with Fast Red substrate at room temperature for 30 minutes. The tissue images were acquired using an Aperio scanner. Hung et al., 2013 Nuc Acid Ther. 369-78. To determine a dose response of a GLP-1 conjugated MALAT1 ASO (ISIS 816385) described in Example 1 on pancreatic MALAT1 expression, male C57BL/6 mice fed a chow diet received a single intravenous injection of ISIS 816385 or an unconjugated MALAT1 ASO (ISIS 556089) described above at concentrations of 0.2, 0.06, and 0.02 μmol/kg. MALAT1 expression was detected using the QuantiGene ViewRNA tissue assay described above.

MALAT1 [4] = experiment: MALAT1 expression in liver by in situ hybridization; assay type: in vivo, mouse
Experimental: Tissues were prepared as described herein, Example 11. The in situ mRNA amplification and labelling process was performed on the Ventana Discovery ULTRA, an Automated ISH platform(Ventana Medical System, Inc) using the RNAscope® VS Assay based on Advanced Cell Diagnostics (ACD). Customized probes were obtained from ACD for the detection of MALAT1 mRNA, and various parameters were tested to optimize the novel RNAscope method for ISH. The signal was amplified using multiple steps, followed by labeled probes and detected using the RNAscope® 2.5 VS Reagent Kit-RED. […] All animals were sacrificed approximately 72 hrs after last, and liver harvested for ex vivo analysis of MALAT1 expression by in situ hybridization. Tissues were prepared, and in situ hybridization performed, as described herein, Example 12.

Substance: ISIS 816385 (H[Aib]EGTFTSDVSSYLEEQAAKEFIAWLVKGGPSSGAPPPSC([Mpa-5'‑hexylamino oligonucleotide ISIS 786434])-NH2; reading uncertain; also: Cys40 joined to the linker by a disulfide)
- Cumulative Food Intake ([1]; 0.01 μmol/kg single s.c., Time 1 h): 0.10 g
- Cumulative Food Intake ([1]; 0.01 μmol/kg single s.c., Time 2 h): 0.25 g
- Cumulative Food Intake ([1]; 0.01 μmol/kg single s.c., Time 3 h): 0.40 g
- Cumulative Food Intake ([1]; 0.01 μmol/kg single s.c., Time 4 h): 0.56 g
- Cumulative Food Intake ([1]; 0.01 μmol/kg single s.c., Time 5 h): 0.71 g
- Cumulative Food Intake ([1]; 0.01 μmol/kg single s.c., Time 6 h): 0.86 g
- Cumulative Food Intake ([1]; 0.01 μmol/kg single s.c., Time 7 h): 1.09 g
- Cumulative Food Intake ([1]; 0.01 μmol/kg single s.c., Time 8 h): 1.23 g
- Cumulative Food Intake ([1]; 0.01 μmol/kg single s.c., Time 9 h): 1.34 g
- Cumulative Food Intake ([1]; 0.01 μmol/kg single s.c., Time 10 h): 1.47 g
- Cumulative Food Intake ([1]; 0.01 μmol/kg single s.c., Time 11 h): 1.61 g
- Cumulative Food Intake ([1]; 0.01 μmol/kg single s.c., Time 12 h): 1.81 g
- Cumulative Food Intake ([1]; 0.01 μmol/kg single s.c., Time 13 h): 1.97 g
- Cumulative Food Intake ([1]; 0.01 μmol/kg single s.c., Time 14 h): 2.22 g
- Cumulative Food Intake ([1]; 0.01 μmol/kg single s.c., Time 15 h): 2.26 g
- Cumulative Food Intake ([1]; 0.01 μmol/kg single s.c., Time 16 h): 2.31 g
- Cumulative Food Intake ([1]; 0.01 μmol/kg single s.c., Time 17 h): 2.57 g
- Cumulative Food Intake ([1]; 0.01 μmol/kg single s.c., Time 18 h): 2.57 g
- Cumulative Food Intake ([1]; 0.01 μmol/kg single s.c., Time 19 h): 2.58 g
- Cumulative Food Intake ([1]; 0.01 μmol/kg single s.c., Time 20 h): 2.64 g
- Cumulative Food Intake ([1]; 0.01 μmol/kg single s.c., Time 21 h): 2.64 g
- Cumulative Food Intake ([1]; 0.01 μmol/kg single s.c., Time 22 h): 2.69 g
- Cumulative Food Intake ([1]; 0.01 μmol/kg single s.c., Time 23 h): 2.69 g
- Cumulative Food Intake ([1]; 0.01 μmol/kg single s.c., Time 24 h): 2.69 g
- Cumulative Food Intake ([1]; 0.03 μmol/kg single s.c., Time 1 h): 0.15 g
- Cumulative Food Intake ([1]; 0.03 μmol/kg single s.c., Time 2 h): 0.21 g
- Cumulative Food Intake ([1]; 0.03 μmol/kg single s.c., Time 3 h): 0.26 g
- Cumulative Food Intake ([1]; 0.03 μmol/kg single s.c., Time 4 h): 0.31 g
- Cumulative Food Intake ([1]; 0.03 μmol/kg single s.c., Time 5 h): 0.38 g
- Cumulative Food Intake ([1]; 0.03 μmol/kg single s.c., Time 6 h): 0.48 g
- Cumulative Food Intake ([1]; 0.03 μmol/kg single s.c., Time 7 h): 0.53 g
- Cumulative Food Intake ([1]; 0.03 μmol/kg single s.c., Time 8 h): 0.55 g
- Cumulative Food Intake ([1]; 0.03 μmol/kg single s.c., Time 9 h): 0.66 g
- Cumulative Food Intake ([1]; 0.03 μmol/kg single s.c., Time 10 h): 0.73 g
- Cumulative Food Intake ([1]; 0.03 μmol/kg single s.c., Time 11 h): 0.79 g
- Cumulative Food Intake ([1]; 0.03 μmol/kg single s.c., Time 12 h): 0.89 g
- Cumulative Food Intake ([1]; 0.03 μmol/kg single s.c., Time 13 h): 0.99 g
- Cumulative Food Intake ([1]; 0.03 μmol/kg single s.c., Time 14 h): 1.07 g
- Cumulative Food Intake ([1]; 0.03 μmol/kg single s.c., Time 15 h): 1.09 g
- Cumulative Food Intake ([1]; 0.03 μmol/kg single s.c., Time 16 h): 1.22 g
- Cumulative Food Intake ([1]; 0.03 μmol/kg single s.c., Time 17 h): 1.23 g
- Cumulative Food Intake ([1]; 0.03 μmol/kg single s.c., Time 18 h): 1.26 g
- Cumulative Food Intake ([1]; 0.03 μmol/kg single s.c., Time 19 h): 1.29 g
- Cumulative Food Intake ([1]; 0.03 μmol/kg single s.c., Time 20 h): 1.33 g
- Cumulative Food Intake ([1]; 0.03 μmol/kg single s.c., Time 21 h): 1.39 g
- Cumulative Food Intake ([1]; 0.03 μmol/kg single s.c., Time 22 h): 1.39 g
- Cumulative Food Intake ([1]; 0.03 μmol/kg single s.c., Time 23 h): 1.39 g
- Cumulative Food Intake ([1]; 0.03 μmol/kg single s.c., Time 24 h): 1.39 g
- Cumulative Food Intake ([1]; 0.1 μmol/kg single s.c., Time 1 h): 0.06 g
- Cumulative Food Intake ([1]; 0.1 μmol/kg single s.c., Time 2 h): 0.12 g
- Cumulative Food Intake ([1]; 0.1 μmol/kg single s.c., Time 3 h): 0.17 g
- Cumulative Food Intake ([1]; 0.1 μmol/kg single s.c., Time 4 h): 0.20 g
- Cumulative Food Intake ([1]; 0.1 μmol/kg single s.c., Time 5 h): 0.26 g
- Cumulative Food Intake ([1]; 0.1 μmol/kg single s.c., Time 6 h): 0.28 g
- Cumulative Food Intake ([1]; 0.1 μmol/kg single s.c., Time 7 h): 0.31 g
- Cumulative Food Intake ([1]; 0.1 μmol/kg single s.c., Time 8 h): 0.37 g
- Cumulative Food Intake ([1]; 0.1 μmol/kg single s.c., Time 9 h): 0.39 g
- Cumulative Food Intake ([1]; 0.1 μmol/kg single s.c., Time 10 h): 0.44 g
- Cumulative Food Intake ([1]; 0.1 μmol/kg single s.c., Time 11 h): 0.49 g
- Cumulative Food Intake ([1]; 0.1 μmol/kg single s.c., Time 12 h): 0.50 g
- Cumulative Food Intake ([1]; 0.1 μmol/kg single s.c., Time 13 h): 0.58 g
- Cumulative Food Intake ([1]; 0.1 μmol/kg single s.c., Time 14 h): 0.62 g
- Cumulative Food Intake ([1]; 0.1 μmol/kg single s.c., Time 15 h): 0.67 g
- Cumulative Food Intake ([1]; 0.1 μmol/kg single s.c., Time 16 h): 0.75 g
- Cumulative Food Intake ([1]; 0.1 μmol/kg single s.c., Time 17 h): 0.76 g
- Cumulative Food Intake ([1]; 0.1 μmol/kg single s.c., Time 18 h): 0.83 g
- Cumulative Food Intake ([1]; 0.1 μmol/kg single s.c., Time 19 h): 0.89 g
- Cumulative Food Intake ([1]; 0.1 μmol/kg single s.c., Time 20 h): 0.90 g
- Cumulative Food Intake ([1]; 0.1 μmol/kg single s.c., Time 21 h): 0.91 g
- Cumulative Food Intake ([1]; 0.1 μmol/kg single s.c., Time 22 h): 0.93 g
- Cumulative Food Intake ([1]; 0.1 μmol/kg single s.c., Time 23 h): 0.93 g
- Cumulative Food Intake ([1]; 0.1 μmol/kg single s.c., Time 24 h): 0.94 g
- % inhibition of MALAT-1 mRNA in Pancreatic Islets (MALAT-1 mRNA): 52%
- IC50 (MALAT1 mRNA): 2.21 µM
- IC50 (MALAT1 [2]): 0.35 µM
- effect in liver (MALAT1 in situ hybridization) (MALAT1 [3]; Study 2, single intravenous injection, any of the doses 0.2, 0.06, 0.02 μmol/kg): No observable effect
- MALAT1 staining in beta islet cells of the pancreas (in situ hybridization) (MALAT1 [3]; Study 2, single intravenous injection, at the 0.2 μmol/kg dose and 0.06 μmol/kg dose): reduced MALAT1 staining
- MALAT1 expression in pancreatic beta islet cells (in situ hybridization) (MALAT1 [3]; male C57BL/6 mice, 2 intravenous injections of 1.8, 0.6 or 0.2 μmol/kg, 72 hours after final injection): reduced MALAT1 expression
- Liver MALAT1 expression (MALAT1 [4]; 2 μmol/kg intravenous, compared to vehicle control): reduced compared to vehicle control
- Liver MALAT1 expression in hepatocytes (MALAT1 [4]; 2 μmol/kg subcutaneous, compared with ISIS 556089): reduced in hepatocytes of animals treated with ISIS 816385 to a greater extent
